Usually EC50 stands for the concentration needed to bring the measured effect to its halfway point. The term IC50 denotes the concentration at which inhibition is half-maximal.

One assay concerns Z-138 cell line. Description: Z-138 Proliferation Assay (Cell Titer Glo, 5 days). Format: cell-based. The note with it: Z-138 cells. Put shortly: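 Z-138 cells at 10,000 cells/ml in RPMI 1640 with 10% heat-inactivated FBS treated with nine-point 3-fold dilutions, top final concentration 20 μM, 0.2% DMSO, for 5 days at 37° C, 5% CO2. Viability by Cell Titer Glo ATP luminescence; 50% inhibition concentration from 4-parameter fit.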

For the next assay, the target named is PRMT5/MEP50 (Homo sapiens (Human), UniProt O14744). Description: PRMT5 Biochemical Assay (PRMT5/MEP50 enzyme assay on peptide substrate, 3H-SAM Flashplate). The note with it: PRMT5 biochemical assay; read-out: Biochemical IC50.
Sequence of PRMT5/MEP50 (O14744 other isoform, or with tags, fused parts or gaps): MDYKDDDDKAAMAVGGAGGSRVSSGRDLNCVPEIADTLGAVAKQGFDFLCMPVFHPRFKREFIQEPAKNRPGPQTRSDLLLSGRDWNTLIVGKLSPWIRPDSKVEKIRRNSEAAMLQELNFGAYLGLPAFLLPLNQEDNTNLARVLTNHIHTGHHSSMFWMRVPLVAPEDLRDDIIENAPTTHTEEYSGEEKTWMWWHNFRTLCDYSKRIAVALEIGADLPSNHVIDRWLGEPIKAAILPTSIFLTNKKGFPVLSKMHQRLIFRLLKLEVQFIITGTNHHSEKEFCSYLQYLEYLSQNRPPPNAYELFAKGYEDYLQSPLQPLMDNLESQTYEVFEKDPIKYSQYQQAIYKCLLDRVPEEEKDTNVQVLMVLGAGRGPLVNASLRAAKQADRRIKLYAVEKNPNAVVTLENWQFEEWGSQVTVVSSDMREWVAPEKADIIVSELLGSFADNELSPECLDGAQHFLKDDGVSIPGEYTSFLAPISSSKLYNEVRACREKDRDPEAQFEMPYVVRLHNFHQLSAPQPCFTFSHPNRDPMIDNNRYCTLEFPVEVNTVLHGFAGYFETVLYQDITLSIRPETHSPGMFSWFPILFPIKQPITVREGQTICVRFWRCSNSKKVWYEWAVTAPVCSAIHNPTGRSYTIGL
Sequence of PRMT5/MEP50 (Q9BQA1 other isoform, or with tags, fused parts or gaps partner): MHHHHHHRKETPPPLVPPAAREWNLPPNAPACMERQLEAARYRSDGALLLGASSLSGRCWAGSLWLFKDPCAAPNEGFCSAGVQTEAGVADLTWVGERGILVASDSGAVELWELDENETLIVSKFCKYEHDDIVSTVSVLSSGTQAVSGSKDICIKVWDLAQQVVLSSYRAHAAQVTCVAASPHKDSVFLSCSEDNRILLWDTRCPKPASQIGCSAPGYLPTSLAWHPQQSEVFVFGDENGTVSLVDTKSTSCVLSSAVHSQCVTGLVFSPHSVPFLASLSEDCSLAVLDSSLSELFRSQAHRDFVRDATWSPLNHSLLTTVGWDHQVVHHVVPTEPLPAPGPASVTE
Assay [1] concerns symmetric di-methyl arginine in Z-138 cells. Description: Z-138 Methylation Assay (In Cell Western for symmetric di-methyl arginine and DNA content). Format: cell-based. As to conditions: Z-138 cells, read-out: ICW EC50.

Where only a bound is given, the exact number is not on record here.

Turning to “N-(3-(3,4-dihydroisoquinolin-2(1H)-yl)-2-hydroxypropyl)-2-((1-(piperidin-4-yl)-1H-indazol-5-yl)oxy)acetamide [Compound 70]”, the concentration giving a half-maximal response (EC50) was over 20000 nM with Z-138 cell line and 101 to 1000 nM in assay [1]. The half-inhibitory concentration (IC50) on PRMT5/MEP50 was under 100 nM.
